Source: publication PMC6792352, “Limited Chemical Structural Diversity Found to Modulate Thyroid Hormone Receptor in the Tox21 Chemical Library” (Environmental Health Perspectives, 2019)
Structures can show the parent of a compound that is named as a salt.

Test: in vitro
Conditions: rat, gh3-tre-luc cells, AC50 (uM) modified / 1000

Row | SMILES | CC50 at 24 h
1 | CCN(CC)CCn1c(=O)c(Cc2ccc(OC)cc2)nc2ccccc21 [Caroverine hydrochloride] | 19.1 µM
2 | CCC(=O)c1ccc2c(c1)N(CCCN1CCN(CCO)CC1)c1ccccc1S2 [Carphenazine dimaleate] | 6.82 µM
3 | CC(C(=O)O)c1ccc2c(c1)[nH]c1ccc(Cl)cc12 (stereo not shown) [Carprofen] | > 50 µM
4 | COC(=O)CCC[N+](C)(C)C [Carpronium chloride] | > 50 µM
5 | O=c1[nH]c(=O)c2ccccc2o1 [Carsalam] | > 50 µM
6 | CC(C)(C)NCC(O)COc1cccc2c1CCC(=O)N2 (stereo not shown) [Carteolol hydrochloride] | > 20 µM
7 | NC(=O)OC[C@@H]1[C@H](NC(=O)/C(=N\OCC(=O)O)c2csc(N)n2)C(=O)N1S(=O)(=O)O [Carumonam sodium] | > 50 µM
8 | COc1ccccc1OCCNCC(O)COc1cccc2[nH]c3ccccc3c12 (stereo not shown) [Carvedilol tartrate] | 24 µM
9 | C=C(C)C1CC=C(C)[C@@H](O)C1 (stereo partly shown) [Carveol] | > 90 µM
10 | C=C(C)C1CC=C(C)C(OC(C)=O)C1 (stereo not shown) [Carvyl acetate] | > 90 µM
11 | NS(=O)(=O)c1ccc(C(=O)O)cc1 [Carzenide] | > 50 µM
12 | N[C@@H](C(=O)N[C@@H]1C(=O)N2C(C(=O)O)=C(Cl)CS[C@H]12)c1ccccc1 [Cefaclor] | > 50 µM
13 | CC1=C(C(=O)O)N2C(=O)[C@@H](NC(=O)[C@H](N)c3ccc(O)cc3)[C@H]2SC1 [Cefadroxil] | > 20 µM
14 | NC(=O)c1cc[n+](CC2=C(C(=O)[O-])N3C(=O)[C@@H](NC(=O)Cc4cccs4)[C@H]3SC2)cc1 [Cefalonium] | > 20 µM
15 | CC(=O)OCC1=C(C(=O)O)N2C(=O)[C@@H](NC(=O)Cc3ccccc3)[C@H]2SC1 [Cefaloram] | > 50 µM
16 | Cn1nnnc1SCC1=C(C(=O)O)N2C(=O)[C@@H](NC(=O)[C@H](OC=O)c3ccccc3)[C@H]2SC1 [Cefamandole nafate] | > 50 µM
17 | Cn1nnnc1SCC1=C(C(=O)O)N2C(=O)[C@@H](NC(=O)[C@H](O)c3ccccc3)[C@H]2SC1 [Cefamandole sodium] | > 20 µM
18 | N[C@@H](C(=O)N[C@@H]1C(=O)N2C(C(=O)O)=C(CSc3c[nH]nn3)CS[C@H]12)c1ccc(O)cc1 [Cefatrizine] | > 50 µM
19 | Cc1nnc(SCC2=C(C(=O)O)N3C(=O)[C@@H](NC(=O)Cn4cnnn4)[C@H]3SC2)s1 [Cefazolin] | > 50 µM
20 | CC/C=C(\C(=O)N[C@@H]1C(=O)N2C(C(=O)OCOC(=O)C(C)(C)C)=C(COC(N)=O)CS[C@H]12)c1csc(N)n1 [Cefcapene pivoxil hydrochloride] | > 50 µM
21 | C=CC1=C(C(=O)O)N2C(=O)[C@@H](NC(=O)/C(=N\O)c3csc(N)n3)[C@H]2SC1 [Cefdinir] | > 50 µM
22 | CO/N=C(\C(=O)N[C@@H]1C(=O)N2C(C(=O)OCOC(=O)C(C)(C)C)=C(/C=C\c3scnc3C)CS[C@H]12)c1csc(N)n1 [Cefditorin pivoxil] | > 50 µM
23 | CO/N=C(\C(=O)N[C@@H]1C(=O)N2C(C(=O)O)=C(C[N+]3(C)CCCC3)CS[C@H]12)c1csc(N)n1 [Cefepime chloride hydrochloride hydrate] | > 50 µM
24 | CO/N=C(\C(=O)N[C@@H]1C(=O)N2C(C(=O)OCOC(=O)C(C)(C)C)=C(C)CS[C@H]12)c1csc(N)n1 [Cefetamet pivoxil HCl] | > 50 µM
25 | C=CC1=C(C(=O)O)N2C(=O)[C@@H](NC(=O)/C(=N\OCC(=O)O)c3csc(N)n3)[C@H]2SC1 [Cefixime] | > 20 µM
26 | CO/N=C(\C(=O)N[C@@H]1C(=O)N2C(C(=O)O)=C(CSc3nnnn3C)CS[C@H]12)c1csc(N)n1 [Cefmenoxime hydrochloride] | > 50 µM
27 | CO[C@@]1(NC(=O)CSCC#N)C(=O)N2C(C(=O)O)=C(CSc3nnnn3C)CS[C@@H]21 [Cefmetazole sodium] | > 50 µM
28 | CO/N=C(\C(=O)N[C@@H]1C(=O)N2C(C(=O)O)=C(CSc3nc(C)c(CC(=O)O)s3)CS[C@H]12)c1csc(N)n1 [Cefodizime sodium] | > 50 µM
